Laboratory results reported in US20250154611A1, “SYSTEMS AND METHODS TO DETECT STEM CELL STRESS AND USES THEREOF” (Wayne State University, priority 2014, published 2025).

What was measured:
Rex1 = experiment: Immunoblot of endogenous Rex1 protein in Rex1-RFP ESCs; format: cell-based, mouse; details: 3 days
Experimental: FIG. 27. Rex1 promoter RFP have a stress dose-dependent loss of endogenous Rex1 protein corresponding to dose-dependent loss of Rex1 activity shown in FIG. 24. (A) Rex1-RFP mESCs expressing cultured until 30% confluent, treated with 0 mM, 200-300 mM sorbitol in 25 mM increments for 3 days (as in FIG. 24), lysed, size fractionated by SDS-PAGE, blotted, probed for Rex1 and ACTB proteins and analyzed for changes compared to time zero and for stress dose responses. The histogram bars are derived from three independent experiments, one of which is shown in the top panel of FIG. 27, shown are X+/−s.e.m., n=3, (a) is P<0.01 and (b) indicates not significant. FIG. 27, bottom panel.
Immunoblot. After treatment, the ESCs were rinsed with PBS, lysed with RIPA buffer supplemented with protease inhibitors and sonicated briefly. Total protein concentration was determined using Pierce BCA protein assay reagent admixed with Laemmli sample buffer, and boiled for 5 min. Equal total protein amounts from the lysates were size-fractionated by 5-20% gradient SDS-PAGE and transferred onto nitrocellulose membrane. Rex1 […] signals were detected using ECL reagent with X-ray films and quantified using ImageJ 1.48v software (NIH, USA).
Finally it was tested whether endogenous Rex1 protein levels decreased commensurately with decreases in Rex1-RFP activity levels assayed in FIG. 24. Rex1-RFP ESCs were cultured for 3 days with 0-300 mM sorbitol and assayed by immunoblot for endogenous Rex1 levels normalized to ACTB loading controls and with time zero unstressed Rex1 set to 100 as a baseline level. Whereas stress-induced decrease in Rex1 activity in FIG. 24 were 20% and 70% at 200 mM and 300 mM sorbitol, respectively endogenous Rex1 protein losses were 30% and 70% at 200 mM and 300 mM, respectively (FIG. 27). Through the series from 200 mM to 300 mM sorbitol there was generally good agreement between activity level and endogenous protein level for Rex1 at 3 days of stress and with Rex1 protein loss at 1 day (Example 2). […]

[1] = tested on: Rex1-RFP ESCs, Oct4-GFP ESCs; experiment: Plate reader fluorescence of Rex1-RFP and Oct4-GFP reporter ESCs; format: cell-based, mouse; details: 3 days
Experimental: FIGS. 23A and 23B. Stress induces loss of Rex1-RFP but not Oct4-GFP after days of 200 mM sorbitol. Viable pluripotency reporter Rex1-RFP ESCs (FIG. 23A) or Oct4-GFP ESCs (FIG. 23B) were cultured in […] plates to 30% confluence. Cells were then treated with 200 mM of sorbitol as an osmotic stress for 3 days. Fluorescence was determined from live ESCs using a plate reader from 200 mM sorbitol treated cells was normalized with the non-sorbitol treated control cells. Four independent experiments were carried out and plotted here.
FIG. 24. Viable Rex1 promoter reporter responds with stress treatment in a dose-dependent manner in flow cytometry assay. mESCs expressing Rex1 promoter reporter were cultured in 12-well plates till 30% confluent. Cells were then treated with 200-300 mM of sorbitol in 25 mM increments for 3 days. After trypsinization cell suspensions were assayed by flow cytometry.
mESC culture and stimulation. […] Osmolality of ESC media with and without added 200 mM sorbitol was determined as in Example 2.
Fluorescence determination by plate reader of pluripotency reporters. mESCs that stably express Oct4-copGFP and/or Rex1-mApple promoter reporters were plated on 96-well plates at a starting confluence of 5%. Four identical plates were made for the time course study. Cells were grown for 24 hr in incubator till 10% confluence was reached; an addition of stimuli was designated time zero. The cells were stressed for a time period selected from 1, 2, or 3 days. At each time point, the medium was removed and the cells were rinsed with D-PBS. At 50 μl/well, ESCs were measured for fluorescence using the Synergy H1 microplate reader (BioTek, Winooski, VT). The excitation and detection wavelengths for Oct4-copGFP were 485 nm and 528 nm, respectively. The excitation and detection wavelengths for Rex1-mApple were 568 nm and 611 nm, respectively. After live-cell reading, the cells were lysed with 50 μL of lysis buffer (1% NP-40, 0.5% TX-100, 100 mM NaCl, 2 mM EDTA, 50 mM Tris-HCl, and pH 7.5) and measured for fluorescence with the same parameters above. After fluorescence determination, the cell lysates were further measured for total protein concentrations by adding 100 μl of Pierce BCA protein assay reagent (Thermo Scientific Inc.) following the manufacturer's instructions. Finally, the fluorescence readings from either live-cells or lysates were normalized to total protein concentration readings, in which higher readings represent higher pluripotency of the cells.

MEK1/2 = experiment: phospho-MEK1/2 western blot in mESCs under 200 mM sorbitol; format: cell-based, mouse; details: returned to baseline by 20 min
From the text: (§1) FIG. 14. […] Blots are representative of triplicate experiments. Phospho-proteins and their loading controls are grouped between black lines.
Hyperosmotic activation of signaling enzymes. […] Zhong, 2010; Xie, 2011. After screening 21 signaling kinases in 11 subfamilies using 14 inhibitors, 5 kinases in the mitogen activated protein kinase (MAPK) and PI3K families were identified as producing differentiation-priming effects in hyperosmotic conditions. To determine the kinetics of activation of these five kinases in the described system, mESCs were treated with 200 mM sorbitol for 1 hr. Expression levels of the activated (i.e., phosphorylated) enzymes were assayed by western blot analysis (FIG. 14), including phospho-p38MAPK, phospho-JNK, phospho-MEK1/2, and phospho-AKT (the downstream effector of PI3K signaling). Activated p38MAPK was 1st detected at 10 min of stimulation; activation persisted throughout 1 hr of stimulation. Similarly, activated JNK was 1st detected at 20 min of stimulation, and persisted throughout 1 hr of stimulation. Activated MEK1/2 and activated AKT were present endogenously at low levels at time zero; sorbitol stimulated higher activation levels of each.

AKT = target: T1, AKT (Mus musculus, UniProt P31750); experiment: phospho-AKT western blot in mESCs under 200 mM sorbitol; format: cell-based; details: 200 mM; persisted through 1 hr
T1 construct: endogenous in cells; host or cells: mESC-D3 (ATCC)
Experimental: as §1
FIG. 15. […] Blots are representative of triplicate experiments.
Hyperosmotic activation of signaling enzymes. […] Zhong, 2010; Xie, 2011. […] To determine the kinetics of activation of these five kinases in the described system, mESCs were treated with 200 mM sorbitol for 1 hr. Expression levels of the activated (i.e., phosphorylated) enzymes were assayed by western blot analysis (FIG. 14), including phospho-p38MAPK, phospho-JNK, phospho-MEK1/2, and phospho-AKT (the downstream effector of PI3K signaling).
Efficacy of enzyme inhibitors.

T1 sequence (P31750 whole entry): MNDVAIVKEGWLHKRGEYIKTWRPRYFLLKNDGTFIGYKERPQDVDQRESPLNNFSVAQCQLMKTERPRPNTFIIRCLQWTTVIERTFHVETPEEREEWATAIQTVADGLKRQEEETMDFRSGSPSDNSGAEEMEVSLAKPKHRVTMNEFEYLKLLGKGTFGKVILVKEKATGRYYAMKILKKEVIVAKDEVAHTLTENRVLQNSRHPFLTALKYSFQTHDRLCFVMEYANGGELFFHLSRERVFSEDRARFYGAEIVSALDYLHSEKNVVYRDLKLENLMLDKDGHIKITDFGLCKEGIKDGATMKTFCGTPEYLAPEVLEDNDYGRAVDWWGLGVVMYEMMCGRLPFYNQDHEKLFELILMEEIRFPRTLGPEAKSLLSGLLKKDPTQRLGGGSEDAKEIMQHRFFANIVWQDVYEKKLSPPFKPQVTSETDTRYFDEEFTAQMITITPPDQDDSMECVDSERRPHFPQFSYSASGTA

Q: How did the “endogenous Rex1 protein loss” value (Rex1; 200 mM) turn out when `OC[C@@H](O)[C@@H](O)[C@H](O)[C@@H](O)CO` [sorbitol] was run?
A: The value was 30%.

Q: What about the “endogenous Rex1 protein loss” value (Rex1; 300 mM) of the same molecule?
A: The value was 70%.

Q: And the “endogenous Rex1 protein” value (Rex1; 225-300 mM, not at 200 mM)?
A: The value was “significantly lower”.

Q: And the Rex1-RFP fluorescence ([1]; 200 mM, LIF present)?
A: The Rex1-RFP fluorescence was “significant loss”.

Q: What about the “decrease in Rex1-RFP activity” value ([1]; 200 mM, LIF present) of the same molecule?
A: The value was 20%.

Q: And the Oct4-GFP fluorescence ([1]; 200 mM, vs non-sorbitol control)?
A: Its Oct4-GFP fluorescence is “not significantly different”.

Q: And the Rex1-RFP fluorescence ([1]; all doses 200-300 mM in 25 mM increments)?
A: Its Rex1-RFP fluorescence is “significant decrease”.

Q: What about the “time of increased MEK1/2 activation” value (MEK1/2) of the same molecule?
A: The value was ≤ 10 min.

Q: What about the “time of increased AKT activation” value (AKT) of the same molecule?
A: The value was 20 to 30 min.
